Laboratory results: PubChem BioAssay AID248 (DTP/NCI, 2004)
“And” between values parts separate entries of the source, which are not always exact repeats. Identical values can stand only once. Toxic doses and inconclusive results are not listed.

Tested on: L1210 leukemia ip in BDF1 mice, survival T/C
Test: NCI In Vivo Anticancer Drug Screen. Data for tumor model L1210 Leukemia (intraperitoneal) in B6D2F1 (BDF1) mice
Settings: endpoint: mean survival time, higher = longer survival
Method in brief: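 In this screen, tumor-bearing mice given compound are compared to those given vehicle, and their survival values are reported as a treated-to-control quotient.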

[1] = dose: 100.0 mg/kg/injection, schedule: Q01DX009 (ip), vehicle: Klucel (hydroxypropylcellulose) (HPC)
[2] = dose: 100.0 mg/kg/injection, schedule: Q04DX003 (ip), vehicle: Klucel (hydroxypropylcellulose) (HPC)
[3] = dose: 200.0 mg/kg/injection, schedule: Q01DX009 (ip), vehicle: Klucel (hydroxypropylcellulose) (HPC)
[4] = dose: 100.0 mg/kg/injection, schedule: Q04DX002 (ip), vehicle: Klucel (hydroxypropylcellulose) (HPC)
[5] = dose: 200.0 mg/kg/injection, schedule: Q04DX002 (ip), vehicle: Klucel (hydroxypropylcellulose) (HPC)
[6] = dose: 400.0 mg/kg/injection, schedule: Q04DX002 (ip), vehicle: Klucel (hydroxypropylcellulose) (HPC)
[7] = dose: 50.0 mg/kg/injection, schedule: Q01DX009 (ip), vehicle: Klucel (hydroxypropylcellulose) (HPC)
[8] = dose: 400.0 mg/kg/injection, schedule: Q01DX009 (ip), vehicle: Klucel (hydroxypropylcellulose) (HPC)

CCCCCCCCCCCCCC#N
T/C (dose: 100.0 mg/kg/injection, schedule: Q01DX001 (ip), vehicle: other): 101 % of control
T/C (dose: 200.0 mg/kg/injection, schedule: Q01DX001 (ip), vehicle: other): 92 % of control
T/C (dose: 400.0 mg/kg/injection, schedule: Q01DX001 (ip), vehicle: other): 92 % of control

NNC(=O)Cc1nc2ccccc2[nH]c1=O
T/C [1]: 102 % of control
T/C [2]: 106 % of control
T/C [3]: 96 % of control
T/C (dose: 200.0 mg/kg/injection, schedule: Q04DX003 (ip), vehicle: Klucel (hydroxypropylcellulose) (HPC)): 95 % of control
T/C (dose: 400.0 mg/kg/injection, schedule: Q04DX003 (ip), vehicle: Klucel (hydroxypropylcellulose) (HPC)): 98 % of control

O=[N+]([O-])c1ccc(O)c(N=Cc2ccccc2)c1
T/C (dose: 100.0 mg/kg/injection, schedule: Q01DX001 (ip), vehicle: saline): 97 % of control
T/C (dose: 200.0 mg/kg/injection, schedule: Q01DX001 (ip), vehicle: saline): 96 % of control
T/C (dose: 400.0 mg/kg/injection, schedule: Q01DX001 (ip), vehicle: saline): 100 % of control

CC(C)(CO)NC(=O)COc1ccc(Cl)cc1Cl
T/C (dose: 100.0 mg/kg/injection, schedule: Q04DX002 (ip), vehicle: saline with Tween-80): 102 % of control
T/C (dose: 200.0 mg/kg/injection, schedule: Q04DX002 (ip), vehicle: saline with Tween-80): 94 % of control
T/C (dose: 400.0 mg/kg/injection, schedule: Q04DX002 (ip), vehicle: saline with Tween-80): 94 % of control

O=C1C(NCC(O)CO)=C(N2CC2)C(=O)C(NCC(O)CO)=C1N1CC1 (centres undefined)
T/C (dose: 0.12 mg/kg/injection, schedule: Q04DX003 (ip), vehicle: saline): 106 % of control
T/C (dose: 0.25 mg/kg/injection, schedule: Q01DX009 (ip), vehicle: saline): 119 % of control and 120 % of control
T/C (dose: 0.25 mg/kg/injection, schedule: Q04DX003 (ip), vehicle: saline): 106 % of control
T/C (dose: 0.5 mg/kg/injection, schedule: Q01DX009 (ip), vehicle: saline): 120 % of control and 121 % of control
T/C (dose: 0.5 mg/kg/injection, schedule: Q04DX003 (ip), vehicle: saline): 112 % of control
T/C (dose: 1.0 mg/kg/injection, schedule: Q01DX009 (ip), vehicle: saline): 156 % of control
T/C (dose: 1.0 mg/kg/injection, schedule: Q04DX003 (ip), vehicle: saline): 104 % of control
T/C (dose: 2.0 mg/kg/injection, schedule: Q01DX001 (ip), vehicle: saline): 189 % of control
T/C (dose: 2.0 mg/kg/injection, schedule: Q01DX009 (ip), vehicle: saline): 216 % of control and 233 % of control
T/C (dose: 2.0 mg/kg/injection, schedule: Q04DX003 (ip), vehicle: saline): 161 % of control
T/C (dose: 4.0 mg/kg/injection, schedule: Q01DX001 (ip), vehicle: saline): 153 % of control
T/C (dose: 4.0 mg/kg/injection, schedule: Q01DX009 (ip), vehicle: saline): 199 % of control and 306 % of control
T/C (dose: 4.0 mg/kg/injection, schedule: Q04DX003 (ip), vehicle: saline): 173 % of control and 190 % of control
T/C (dose: 8.0 mg/kg/injection, schedule: Q01DX009 (ip), vehicle: saline): 98 % of control and 102 % of control
T/C (dose: 8.0 mg/kg/injection, schedule: Q04DX003 (ip), vehicle: saline): 179 % of control

COc1ccc(OC)c2[nH]c(-c3ccc(Cl)cc3)cc12
T/C [4]: 99 % of control
T/C [5]: 102 % of control
T/C [6]: 89 % of control

CC#CCCC(=O)OCC
T/C [4]: 104 % of control
T/C [5]: 106 % of control
T/C [6]: 95 % of control

O=C(Nc1ccc(CCNC2=NCCN2)cc1)c1ccc(C(=O)Nc2ccc(CCNC3=NCCN3)cc2)cc1
T/C (dose: 1.0 mg/kg/injection, schedule: Q01DX Z (ip), vehicle: water): 107 % of control
T/C (dose: 1.5 mg/kg/injection, schedule: Q01DX Z (ip), vehicle: water): 109 % of control
T/C (dose: 3.0 mg/kg/injection, schedule: Q01DX Z (ip), vehicle: water): 158 % of control
T/C (dose: 3.75 mg/kg/injection, schedule: Q01DX Z (ip), vehicle: water): 167 % of control
T/C (dose: 7.5 mg/kg/injection, schedule: Q01DX Z (ip), vehicle: water): 151 % of control
T/C (dose: 10.0 mg/kg/injection, schedule: Q01DX Z (ip), vehicle: carboxymethylcellulose (CMC)): 216 % of control
T/C (dose: 15.0 mg/kg/injection, schedule: Q01DX Z (ip), vehicle: water): 92 % of control
T/C (dose: 20.0 mg/kg/injection, schedule: Q01DX Z (ip), vehicle: carboxymethylcellulose (CMC)): 180 % of control
T/C (dose: 40.0 mg/kg/injection, schedule: Q01DX Z (ip), vehicle: carboxymethylcellulose (CMC)): 118 % of control
T/C (dose: 62.0 mg/kg/injection, schedule: Q01DX Z (oral), vehicle: water): 101 % of control
T/C (dose: 80.0 mg/kg/injection, schedule: Q01DX Z (ip), vehicle: carboxymethylcellulose (CMC)): 108 % of control
T/C (dose: 125.0 mg/kg/injection, schedule: Q01DX Z (oral), vehicle: water): 100 % of control
T/C (dose: 250.0 mg/kg/injection, schedule: Q01DX Z (oral), vehicle: water): 109 % of control
T/C (dose: 500.0 mg/kg/injection, schedule: Q01DX Z (oral), vehicle: water): 101 % of control

COc1ccc(N=Cc2ccc(C=Nc3ccc(OC)cc3)cc2)cc1
T/C (dose: 25.0 mg/kg/injection, schedule: Q04DX003 (ip), vehicle: Klucel (hydroxypropylcellulose) (HPC)): 96 % of control
T/C [7]: 90 % of control
T/C (dose: 50.0 mg/kg/injection, schedule: Q04DX003 (ip), vehicle: Klucel (hydroxypropylcellulose) (HPC)): 98 % of control
T/C [1]: 97 % of control
T/C [2]: 96 % of control
T/C [3]: 88 % of control

C[C@]12CC[C@H]3[C@@H](CC[C@]4(O)C[C@@H](O)CC[C@]34C=O)[C@@]1(O)CC[C@@H]2C1=CC(=O)OC1
T/C (dose: 12.5 mg/kg/injection, schedule: Q01DX009 (ip), vehicle: Klucel (hydroxypropylcellulose) (HPC)): 102 % of control
T/C (dose: 25.0 mg/kg/injection, schedule: Q01DX009 (ip), vehicle: Klucel (hydroxypropylcellulose) (HPC)): 104 % of control
T/C (dose: 50.0 mg/kg/injection, schedule: Q01DX001 (ip), vehicle: carboxymethylcellulose (CMC)): 98 % of control
T/C [7]: 102 % of control
T/C (dose: 50.0 mg/kg/injection, schedule: Q01DX009 (ip), vehicle: carboxymethylcellulose (CMC)): 103 % of control
T/C (dose: 75.0 mg/kg/injection, schedule: Q04DX003 (ip), vehicle: Klucel (hydroxypropylcellulose) (HPC)): 102 % of control
T/C (dose: 100.0 mg/kg/injection, schedule: Q01DX001 (ip), vehicle: carboxymethylcellulose (CMC)): 96 % of control
T/C [1]: 109 % of control
T/C (dose: 100.0 mg/kg/injection, schedule: Q01DX009 (ip), vehicle: carboxymethylcellulose (CMC)): 108 % of control
T/C (dose: 150.0 mg/kg/injection, schedule: Q04DX003 (ip), vehicle: Klucel (hydroxypropylcellulose) (HPC)): 98 % of control
T/C (dose: 200.0 mg/kg/injection, schedule: Q01DX001 (ip), vehicle: carboxymethylcellulose (CMC)): 93 % of control
T/C [3]: 112 % of control
T/C (dose: 300.0 mg/kg/injection, schedule: Q04DX003 (ip), vehicle: Klucel (hydroxypropylcellulose) (HPC)): 101 % of control

O=C(N/N=C/c1ccccn1)C1CCCO1 (centres undefined)
T/C (dose: 25.0 mg/kg/injection, schedule: Q01DX009 (ip), vehicle: saline): 102 % of control
T/C (dose: 50.0 mg/kg/injection, schedule: Q01DX009 (ip), vehicle: saline): 102 % of control
T/C (dose: 100.0 mg/kg/injection, schedule: Q01DX009 (ip), vehicle: saline): 98 % of control and 116 % of control
T/C (dose: 200.0 mg/kg/injection, schedule: Q01DX009 (ip), vehicle: saline): 117 % of control

CC(C)/C([O-])=N\[N+](C)(C)Cc1ccccc1
T/C (dose: 100.0 mg/kg/injection, schedule: Q04DX003 (ip), vehicle: saline): 105 % of control
T/C (dose: 200.0 mg/kg/injection, schedule: Q04DX003 (ip), vehicle: saline): 100 % of control
T/C (dose: 400.0 mg/kg/injection, schedule: Q04DX003 (ip), vehicle: saline): 98 % of control

CCOc1ccc(NC(=O)Nc2cccc(C(F)(F)F)c2)cc1
T/C [1]: 91 % of control
T/C [3]: 96 % of control
T/C [8]: 93 % of control

CCC#CC(=O)OCCCC
T/C (dose: 100.0 mg/kg/injection, schedule: Q04DX002 (ip), vehicle: saline): 93 % of control
T/C (dose: 200.0 mg/kg/injection, schedule: Q04DX002 (ip), vehicle: saline): 104 % of control
T/C (dose: 400.0 mg/kg/injection, schedule: Q04DX002 (ip), vehicle: saline): 96 % of control

O=C(NNC(=O)c1cccc([N+](=O)[O-])c1)C(=O)NNC(=O)c1cccc([N+](=O)[O-])c1
T/C [1]: 100 % of control
T/C [3]: 110 % of control
T/C [8]: 105 % of control
